≈ marks a conversion by molar mass, not a printed value. Like-named read-outs stand apart in the source and are kept apart here.
Experiments:
[1] = Exposure in epithelial lining fluid (ELF) and alveolar macrophages (AM), healthy subjects; assay type: in vivo; details: human, single 1000 mg IV infusion over 2 hours
Description: Antibiotic target site exposures play a key role as suboptimal levels may lead to therapeutic failure and resistance. Across multiple clinical studies, exposures to gepotidacin were assessed in plasma and other matrices, such as urine, saliva, epithelial lining fluid (ELF) and Alveolar Macrophages (AM).
Bronchoalveolar lavage samples were collected to determine gepotidacin exposures in ELF and AM following a single 1000 mg IV infusion over 2 hours to healthy subjects. Saliva exposure was assessed in healthy volunteers following 1500 mg oral single dose. Gepotidacin exposures in urine was assessed in women with acute uUTI following 1500 mg BID oral doses for 5 days.

[2] = tested on: qualifying uropathogens; test: Phase IIa baseline uropathogen susceptibility testing (CLSI broth microdilution); assay type: cell-based; details: 8 qualifying baseline uropathogens
Description: (§1) This phase IIa single center study evaluated the safety, tolerability, pharmacokinetics, and efficacy of oral gepotidacin 1500 mg BID for 5 days in female subjects with acute cystitis. Clean catch mid-stream urine specimens were obtained for quantitative culture by standard methods. Urine samples were taken from all participants pre-treatment (baseline) and at all post-baseline visits. All urine samples were sent to a central laboratory (PPD Global Clinical Laboratories, Highland Heights, Ky., USA) for Gram stain, quantitative culture, pathogen identification and susceptibility testing. See FIG. 1 for participant disposition and study outline.
(§2) Susceptibility testing by CLSI broth microdilution and gradient diffusion (fosfomycin only) was conducted (CLSI, 2015, Methods for dilution antimicrobial susceptibility tests for bacteria that grow aerobically; approved standard-tenth edition; and CLSI, 2018. Performance Standards for Antimicrobial Susceptibility Testing; Twenty-seventh Informational Supplement M100-S28). Inclusion in the microbiological intent-to-treat population (micro-ITT), required growth of a qualifying baseline uropathogen (≥10^5 CFU/mL). See FIG. 2 for the baseline algorithm.

[3] = tested on: S. saprophyticus; test: as above; assay type: cell-based; details: Staphylococcus saprophyticus; Participant 8; read-out: GEP MIC
Description: as §1, §2

[4] = tested on: E. coli; test: MIC by CLSI agar dilution, Example 1 Method 2; assay type: cell-based, Escherichia coli
Description: (§3) Antimicrobial activity was determined in a second study by […] using the CLSI recommended procedure in serial two-fold dilutions and the minimum inhibitory concentration (MIC) was determined as the lowest concentration of the compound that inhibited visible growth.
(§4) MICs were determined according to CLSI agar dilution guidelines.

[5] = MIC by CLSI broth microdilution, Example 1 Method 1, gram-negative aerobic organisms; assay type: cell-based; details: at least one strain of every organism listed; salt of gepotidacin (such as mesylate salt)
Description: Antimicrobial activity was determined by broth microdilution using the CLSI recommended procedure.

[6] = tested on: Prevotella spp.; test: MIC by CLSI agar dilution, Example 6 second study; assay type: cell-based; details: 1 isolate
From the text: (§5) A second study tested gepotidacin by CLSI agar dilution against gram-positive and gram-negative anaerobic bacterial isolates from the GlaxoSmithKline Upper Providence culture collection. Amoxicillin, azithromycin, levofloxacin, and cefuroxime were included as comparators.

[7] = tested on: Fusobacterium spp.; test: MIC by CLSI agar dilution, Example 6 second study; assay type: cell-based; details: 3 isolates
From the text: as §5

[8] = tested on: Peptostreptococcus spp.; test: MIC by CLSI agar dilution, Example 6 second study; assay type: cell-based; details: 4 isolates
From the text: as §5

[9] = tested on: Clostridium bifermentans; test: MIC by CLSI agar dilution, Example 6 second study; assay type: cell-based; details: Paraclostridium bifermentans; 1 isolate
From the text: as §5

[10] = Pharmacokinetics in infected mice (plasma, kidney, thigh; PopPK); assay type: in vivo, mouse
Description: PK and PD studies using gepotidacin were conducted in murine (male CD-1 mice) thigh and kidney infections. The administered doses ranged from 1 to 200 mg/kg SC every 6 hours starting 1h post infection. Infected tissues were evaluated for bacterial burden at 24 h post infection (baseline controls at 1 h post infection).
Plasma and tissue samples (kidney or thigh homogenates) were collected at 15, 30, 60, 120, 240 and 360 minutes. A population PK (PopPK) model was built in NONMEM using plasma exposures.
Specific pathogen free male CD-1 mice weighing ˜27 g were used throughout the PK and PD studies. For most studies, mice were rendered neutropenic with two IP doses of cyclophosphamide on day −4 (150 mg/kg) and day −1 (100 mg/kg). Plasma and tissue samples (kidney and/or thigh) were collected at 15, 30, 60, 120, 240 and 360 minutes post dose from competent or neutropenic infected mice (N=3/group) following a single subcutaneous (SC) dose of 6.25-200 mg/kg. Samples were assayed by LC/MS/MS; the lower limit of quantification was 0.05 ug/mL.
Non-compartmental Analysis (NCA): plasma NCA was conducted using Phoenix WinNonLin 6.3 (Pharsight) with the linear up log down method.
Population Pharmacokinetics (PopPK): • Total drug concentrations in plasma were converted to free drug values based on protein binding of 24% in mice. • A PopPK model was built to describe the drug exposure in plasma over time using NONMEM (7.3) and the software R (version 3.4.0) for diagnostic plots. • The final model was used to simulate exposures at the multiple dose levels evaluated in the efficacy studies.

[11] = tested on: C. koseri; test: Phase IIa baseline uropathogen susceptibility testing (CLSI broth microdilution); assay type: cell-based, Citrobacter koseri; details: Citrobacter koseri; Participant 1; read-out: GEP MIC
Description: as §1, §2

[12] = tested on: E. coli; test: as above; assay type: cell-based, Escherichia coli; details: Escherichia coli, read-out: GEP MIC
Description: as §1, §2

[13] = tested on: A. baumannii; test: MIC by CLSI agar dilution, Example 1 Method 2; assay type: cell-based, Acinetobacter baumannii; details: n = 60
Description: as §3, §4

O=c1ccc2ncc(=O)n3c2n1C[C@H]3CN1CCC(NCc2cc3c(cn2)OCCC3)CC1 [gepotidacin, (2R)-2-({4-[(3,4-dihydro-2H-pyrano[2,3-c]pyridin-6-ylmethyl)amino]-1-piperidinyl}methyl)-1,2-dihydro-3H,8H-2a,5,8a-triazaacenaphthylene-3,8-dione]
Kp ([1]; alveolar macrophages, read-out: AM AUC(0-12) ratio to unbound plasma): 178 | Kp ([1]; epithelial lining fluid, read-out: ELF AUC(0-12) ratio to unbound plasma): 1.84 | Gepotidacin MICs ranged [2]: 0.06 to 4 µg/mL | MIC [3]: 0.06 µg/mL (≈ 0.134 µM) | MICs ranged ([4]; 254 isolates): ≤0.06 to 64 mg/L | % of the tested isolates inhibited at ≤8 mg/L ([4]; 254 isolates, enriched for drug resistance): 96.1% | MIC50 ([4]; Escherichia coli, n = 254): 2 µg/mL (≈ 4.46 µM) | MIC90 ([4]; Escherichia coli, n = 254): 8 µg/mL (≈ 17.8 µM) | % of isolates inhibited at ≤8 mg/L ([4]; KPC producing E. coli): 94.6% | % of isolates inhibited at ≤8 mg/L ([4]; NDM producing E. coli): 100% | % of isolates inhibited at ≤8 mg/L ([4]; OXA-48-like producing E. coli): 92.1% | Effect of levofloxacin non-susceptibility or QRDR substitutions in GyrA and ParC on activity ([4]; QRDR data for 188 of 254 isolates): unaffected | Number of Isolates at Gepotidacin MIC 0.5 mg/L ([4]; n = 254): 22 | Number of Isolates at Gepotidacin MIC 1 mg/L ([4]; n = 254): 56 | Number of Isolates at Gepotidacin MIC 2 mg/L ([4]; n = 254): 92 | Number of Isolates at Gepotidacin MIC 4 mg/L ([4]; n = 254): 37 | Number of Isolates at Gepotidacin MIC 8 mg/L ([4]; n = 254): 33 | Number of Isolates at Gepotidacin MIC ≤0.25 mg/L ([4]; n = 254): 4 | Number of Isolates at Gepotidacin MIC ≥16 mg/L ([4]; n = 254): 10 | MIC [5]: ≤ 8 µg/mL | MIC [6]: 4 µg/mL (≈ 8.92 µM) | MIC [7]: 0.12 to 1 µg/mL (≈ 0.268 to 2.23 µM) | MIC [8]: 0.12 to 2 µg/mL (≈ 0.268 to 4.46 µM) | MIC [9]: 0.06 µg/mL (≈ 0.134 µM) | duration of infusion ([10]; PopPK final parameter estimate, plasma): 0.262 h | AUC0-6 in kidney, fold higher than in plasma ([10]; SC dosing, infected mice): 4- to 5 fold | AUC0-6 in thigh relative to plasma ([10]; SC dosing, infected mice): approximately half of plasma | clearance ([10]; male, CD-1, mouse, subcutaneous, PopPK final parameter estimate, plasma): 1.73 mL/min | Vd ([10]; male, CD-1, mouse, subcutaneous, PopPK final parameter estimate, plasma, read-out: volume of distribution): 0.151 L | fraction unbound ([10]; mouse, plasma, mice, read-out: protein binding (converted)): 0.76 | MIC [11]: 0.5 µg/mL (≈ 1.11 µM) | MIC ([12]; Participant 2): 2 µg/mL (≈ 4.46 µM) | MIC ([12]; Participant 3): 0.5 µg/mL (≈ 1.11 µM) | MIC ([12]; Participant 4): 2 µg/mL (≈ 4.46 µM) | MIC ([12]; Participant 5, MDR and fluoroquinolone-resistant): 1 µg/mL (≈ 2.23 µM) | MIC ([12]; Participant 6, MDR): 2 µg/mL (≈ 4.46 µM) | MIC50 ([13]; Acinetobacter baumannii): 32 µg/mL (≈ 71.3 µM) | MIC90 ([13]; Acinetobacter baumannii): 64 µg/mL (≈ 143 µM) | Number of Isolates at Gepotidacin MIC 8 mg/L [13]: 7 | Number of Isolates at Gepotidacin MIC ≥16 mg/L [13]: 53
